PubChem BioAssay (NCI)
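Step 1: Grow cells in 96-well plates. Step 2: Expose to compound for 48 hours at 5 concentrations. Step 3: Interpolate endpoints linearly; if unreached, use highest concentration. At the TGI there is no net growth.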

Tests used:
Assay in all cases: NCI tumour cell line growth inhibition, 48 h
OVCAR-3 ovarian = test system: OVCAR-3 ovarian
MDA-MB-231 breast = test system: MDA-MB-231 breast
NCI-H460 lung = test system: NCI-H460 lung
HCT-116 colon = test system: HCT-116 colon
NCI-H226 lung = test system: NCI-H226 lung
PC-3 prostate = test system: PC-3 prostate
NCI-H23 lung = test system: NCI-H23 lung
HT29 colon = test system: HT29 colon
UACC-257 melanoma = test system: UACC-257 melanoma
T-47D breast = test system: T-47D breast
A498 renal = test system: A498 renal
HS 578T breast = test system: HS 578T breast
MDA-MB-435 = test system: MDA-MB-435
SK-OV-3 ovarian = test system: SK-OV-3 ovarian
SK-MEL-28 melanoma = test system: SK-MEL-28 melanoma
HOP-92 NSCLC = test system: HOP-92 NSCLC
SK-MEL-5 melanoma = test system: SK-MEL-5 melanoma
CAKI-1 renal = test system: CAKI-1 renal
OVCAR-4 ovarian = test system: OVCAR-4 ovarian
IGROV1 ovarian = test system: IGROV1 ovarian
MDA-N = test system: MDA-N
SK-MEL-2 melanoma = test system: SK-MEL-2 melanoma
HCT-15 colon = test system: HCT-15 colon
KM12 colon = test system: KM12 colon
SF-539 CNS = test system: SF-539 CNS
UO-31 renal = test system: UO-31 renal
K-562 leukemia = test system: K-562 leukemia
NCI-H522 lung = test system: NCI-H522 lung
RPMI-8226 leukemia = test system: RPMI-8226 leukemia
OVCAR-5 ovarian = test system: OVCAR-5 ovarian
U251 CNS = test system: U251 CNS
SW-620 colon = test system: SW-620 colon
HOP-62 NSCLC = test system: HOP-62 NSCLC
RXF 393 renal = test system: RXF 393 renal
MCF7 breast = test system: MCF7 breast
BT-549 breast = test system: BT-549 breast
SN12C renal = test system: SN12C renal
SNB-75 CNS = test system: SNB-75 CNS
786-0 renal = test system: 786-0 renal
SNB-19 CNS = test system: SNB-19 CNS
DU-145 prostate = test system: DU-145 prostate
MALME-3M melanoma = test system: MALME-3M melanoma
UACC-62 melanoma = test system: UACC-62 melanoma
M14 melanoma = test system: M14 melanoma
SF-268 CNS = test system: SF-268 CNS
EKVX NSCLC = test system: EKVX NSCLC
A549 NSCLC = test system: A549 NSCLC
NCI/ADR-RES ovarian = test system: NCI/ADR-RES ovarian
OVCAR-8 ovarian = test system: OVCAR-8 ovarian
ACHN renal = test system: ACHN renal
TK-10 renal = test system: TK-10 renal
SF-295 CNS = test system: SF-295 CNS
COLO 205 colon = test system: COLO 205 colon
MOLT-4 leukemia = test system: MOLT-4 leukemia
LOX IMVI melanoma = test system: LOX IMVI melanoma
SR leukemia = test system: SR leukemia
HCC-2998 colon = test system: HCC-2998 colon

**Q.** With `N#Cc1c(NC(=O)CCC(=O)O)ccc2ccccc12` as the molecule, how does the TGI (OVCAR-3 ovarian) read?
**A.** > 100 µM

**Q.** What about the TGI (MDA-MB-231 breast) of the same molecule?
**A.** > 100 µM

**Q.** And the TGI (NCI-H460 lung)?
**A.** > 100 µM

**Q.** What about the TGI (HCT-116 colon) of the same molecule?
**A.** > 100 µM

**Q.** What about the TGI (NCI-H226 lung) of the same molecule?
**A.** > 100 µM

**Q.** And the TGI (PC-3 prostate)?
**A.** > 100 µM

**Q.** And the TGI (NCI-H23 lung)?
**A.** > 100 µM

**Q.** And the TGI (HT29 colon)?
**A.** > 100 µM

**Q.** What about the TGI (UACC-257 melanoma) of the same molecule?
**A.** > 100 µM

**Q.** What about the TGI (T-47D breast) of the same molecule?
**A.** > 100 µM

**Q.** What about the TGI (A498 renal) of the same molecule?
**A.** > 100 µM

**Q.** What about the TGI (HS 578T breast) of the same molecule?
**A.** > 100 µM

**Q.** And the TGI (MDA-MB-435)?
**A.** > 100 µM

**Q.** And the TGI (SK-OV-3 ovarian)?
**A.** > 100 µM

**Q.** And the TGI (SK-MEL-28 melanoma)?
**A.** > 100 µM

**Q.** And the TGI (HOP-92 NSCLC)?
**A.** > 100 µM

**Q.** What about the TGI (SK-MEL-5 melanoma) of the same molecule?
**A.** > 100 µM

**Q.** What about the TGI (CAKI-1 renal) of the same molecule?
**A.** > 100 µM

**Q.** And the TGI (OVCAR-4 ovarian)?
**A.** > 100 µM

**Q.** What about the TGI (IGROV1 ovarian) of the same molecule?
**A.** > 100 µM

**Q.** What about the TGI (MDA-N) of the same molecule?
**A.** > 100 µM

**Q.** What about the TGI (SK-MEL-2 melanoma) of the same molecule?
**A.** > 100 µM

**Q.** What about the TGI (HCT-15 colon) of the same molecule?
**A.** > 100 µM

**Q.** What about the TGI (KM12 colon) of the same molecule?
**A.** > 100 µM

**Q.** And the TGI (SF-539 CNS)?
**A.** > 100 µM

**Q.** And the TGI (UO-31 renal)?
**A.** > 100 µM

**Q.** And the TGI (K-562 leukemia)?
**A.** > 100 µM

**Q.** What about the TGI (NCI-H522 lung) of the same molecule?
**A.** > 100 µM

**Q.** And the TGI (RPMI-8226 leukemia)?
**A.** > 100 µM

**Q.** What about the TGI (OVCAR-5 ovarian) of the same molecule?
**A.** > 100 µM

**Q.** What about the TGI (U251 CNS) of the same molecule?
**A.** > 100 µM

**Q.** What about the TGI (SW-620 colon) of the same molecule?
**A.** > 100 µM

**Q.** And the TGI (HOP-62 NSCLC)?
**A.** > 100 µM

**Q.** And the TGI (RXF 393 renal)?
**A.** > 100 µM

**Q.** What about the TGI (MCF7 breast) of the same molecule?
**A.** > 100 µM

**Q.** What about the TGI (BT-549 breast) of the same molecule?
**A.** > 100 µM

**Q.** And the TGI (SN12C renal)?
**A.** > 100 µM

**Q.** And the TGI (SNB-75 CNS)?
**A.** > 100 µM

**Q.** And the TGI (786-0 renal)?
**A.** > 100 µM

**Q.** What about the TGI (SNB-19 CNS) of the same molecule?
**A.** > 100 µM

**Q.** What about the TGI (DU-145 prostate) of the same molecule?
**A.** > 100 µM

**Q.** What about the TGI (MALME-3M melanoma) of the same molecule?
**A.** > 100 µM

**Q.** And the TGI (UACC-62 melanoma)?
**A.** > 100 µM

**Q.** And the TGI (M14 melanoma)?
**A.** > 100 µM

**Q.** What about the TGI (SF-268 CNS) of the same molecule?
**A.** > 100 µM

**Q.** What about the TGI (EKVX NSCLC) of the same molecule?
**A.** > 100 µM

**Q.** What about the TGI (A549 NSCLC) of the same molecule?
**A.** > 100 µM

**Q.** And the TGI (NCI/ADR-RES ovarian)?
**A.** > 100 µM

**Q.** And the TGI (OVCAR-8 ovarian)?
**A.** > 100 µM

**Q.** What about the TGI (ACHN renal) of the same molecule?
**A.** > 100 µM

**Q.** What about the TGI (TK-10 renal) of the same molecule?
**A.** > 100 µM

**Q.** And the TGI (SF-295 CNS)?
**A.** > 100 µM

**Q.** What about the TGI (COLO 205 colon) of the same molecule?
**A.** > 100 µM

**Q.** For `O=C1c2c(Br)sc(Br)c2[C@H]2NC(=S)O[C@@H]12`, which TGI (OVCAR-3 ovarian) is on record?
**A.** 20.4 µM

**Q.** What about the TGI (MDA-MB-231 breast) of the same molecule?
**A.** 32.2 µM

**Q.** And the TGI (NCI-H460 lung)?
**A.** 38.3 µM

**Q.** And the TGI (HCT-116 colon)?
**A.** 24.5 µM

**Q.** What about the TGI (MOLT-4 leukemia) of the same molecule?
**A.** 5.31 µM

**Q.** What about the TGI (NCI-H226 lung) of the same molecule?
**A.** 42.9 µM

**Q.** And the TGI (PC-3 prostate)?
**A.** 27.7 µM

**Q.** And the TGI (NCI-H23 lung)?
**A.** 29.9 µM

**Q.** And the TGI (HT29 colon)?
**A.** 33.5 µM

**Q.** What about the TGI (UACC-257 melanoma) of the same molecule?
**A.** 31.3 µM

**Q.** And the TGI (T-47D breast)?
**A.** 69.3 µM

**Q.** And the TGI (A498 renal)?
**A.** 47.2 µM

**Q.** And the TGI (HS 578T breast)?
**A.** 60 µM

**Q.** And the TGI (MDA-MB-435)?
**A.** 29.1 µM

**Q.** And the TGI (SK-OV-3 ovarian)?
**A.** 33.3 µM

**Q.** And the TGI (SK-MEL-28 melanoma)?
**A.** 29.6 µM

**Q.** What about the TGI (HOP-92 NSCLC) of the same molecule?
**A.** 33.8 µM

**Q.** What about the TGI (SK-MEL-5 melanoma) of the same molecule?
**A.** 29.7 µM

**Q.** And the TGI (CAKI-1 renal)?
**A.** 26.7 µM

**Q.** And the TGI (OVCAR-4 ovarian)?
**A.** 31.9 µM

**Q.** And the TGI (IGROV1 ovarian)?
**A.** 32 µM

**Q.** And the TGI (MDA-N)?
**A.** 30.6 µM

**Q.** What about the TGI (SK-MEL-2 melanoma) of the same molecule?
**A.** 33.4 µM

**Q.** And the TGI (HCT-15 colon)?
**A.** 16.6 µM

**Q.** And the TGI (KM12 colon)?
**A.** 38.1 µM

**Q.** What about the TGI (SF-539 CNS) of the same molecule?
**A.** 33.6 µM

**Q.** And the TGI (UO-31 renal)?
**A.** 29.8 µM

**Q.** And the TGI (LOX IMVI melanoma)?
**A.** 30.5 µM

**Q.** And the TGI (K-562 leukemia)?
**A.** 20.7 µM

**Q.** And the TGI (SR leukemia)?
**A.** 15.3 µM

**Q.** What about the TGI (NCI-H522 lung) of the same molecule?
**A.** 3.74 µM

**Q.** And the TGI (RPMI-8226 leukemia)?
**A.** 45.5 µM

**Q.** What about the TGI (OVCAR-5 ovarian) of the same molecule?
**A.** 35.2 µM

**Q.** And the TGI (U251 CNS)?
**A.** 26.7 µM

**Q.** What about the TGI (SW-620 colon) of the same molecule?
**A.** 11.3 µM

**Q.** What about the TGI (HOP-62 NSCLC) of the same molecule?
**A.** 34.9 µM

**Q.** What about the TGI (RXF 393 renal) of the same molecule?
**A.** 27.9 µM

**Q.** What about the TGI (MCF7 breast) of the same molecule?
**A.** 31.8 µM

**Q.** And the TGI (BT-549 breast)?
**A.** 30.3 µM

**Q.** What about the TGI (SN12C renal) of the same molecule?
**A.** 32.7 µM

**Q.** What about the TGI (SNB-75 CNS) of the same molecule?
**A.** 34.7 µM

**Q.** What about the TGI (786-0 renal) of the same molecule?
**A.** 28.5 µM

**Q.** And the TGI (HCC-2998 colon)?
**A.** 34.8 µM

**Q.** What about the TGI (SNB-19 CNS) of the same molecule?
**A.** 50.8 µM

**Q.** What about the TGI (DU-145 prostate) of the same molecule?
**A.** 30.7 µM

**Q.** What about the TGI (MALME-3M melanoma) of the same molecule?
**A.** 29.8 µM

**Q.** What about the TGI (UACC-62 melanoma) of the same molecule?
**A.** 29.2 µM

**Q.** And the TGI (M14 melanoma)?
**A.** 30.5 µM

**Q.** And the TGI (SF-268 CNS)?
**A.** 30.2 µM

**Q.** And the TGI (EKVX NSCLC)?
**A.** 39.5 µM

**Q.** What about the TGI (A549 NSCLC) of the same molecule?
**A.** 46.8 µM

**Q.** What about the TGI (NCI/ADR-RES ovarian) of the same molecule?
**A.** 45.8 µM

**Q.** And the TGI (OVCAR-8 ovarian)?
**A.** 24.5 µM

**Q.** What about the TGI (ACHN renal) of the same molecule?
**A.** 31.6 µM

**Q.** And the TGI (TK-10 renal)?
**A.** 57.9 µM

**Q.** What about the TGI (SF-295 CNS) of the same molecule?
**A.** 45.5 µM

**Q.** And the TGI (COLO 205 colon)?
**A.** 27.8 µM
